Results reported in patent US20130204033A1, “ANTIPROLIFERATIVE COMPOUNDS, CONJUGATES THEREOF, METHODS THEREFOR, AND USES THEREOF” (Medarex, Inc., priority 2009, published 2013).
Like-named read-outs stand apart in the source and are kept apart here. One block for each compound: values may come before it.

How the values were obtained:
Assay type in all cases: cell-based, human
[1] = system: Hep3B; test: ATP luminescence proliferation assay, Hep3B; conditions: ATP luminescence, 48 h incubation, read-out: EC50 Hep3B (48 h)
Experimental: (§1) This example generally describes the procedures used to assay the antiproliferative activity of compounds of this invention or their conjugates. Human tumor cell lines were obtained from the American Type Culture Collection (ATCC), P.O. Box 1549, Manassas, Va. 20108, USA, and cultured according to instruction from the ATCC. Cells were seeded at 1.0×10^3 or 1.0×10^4 cells/well in 96-well plates for 3 h for ATP assays or ^3H thymidine assays, respectively. 1:3 serial dilutions of free (unconjugated) compounds or their conjugates were added to the wells. Plates were allowed to incubate for 24 to 72 h. The ^3H thymidine plates were pulsed with 1.0 μCi of ^3H-thymidine per well for the last 24 hours of the total incubation period, harvested, and read on a Top Count Scintillation Counter (Packard Instruments, Meriden, Conn.). ATP levels in the ATP plates were measured using the […]-GLO® Luminescent Cell Viability kit following the manufacturer's manual and read on a GLOMAX® 20/20 luminometer (both from Promega, Madison, Wis., USA). The EC50 values—the concentration at which an agent inhibits or reduces cell proliferation by 50% —were determined using PRISM™ software, version 4.0 (GraphPad Software, La Jolla, Calif., USA).
(§2) Using the ^3H thymidine or the ATP luminescence assay, or both, the activities of compounds of this invention were assayed against the following cancer cell lines: HCT-15 (colorectal cancer, multi-drug resistant (MDR)); Hep3B (liver cancer); LNCaP (prostate cancer, androgen receptor positive (AR^+)); MDA-MB-231 (breast cancer, estrogen receptor, progesterone receptor, and Her2 negative (triple negative)); A2058 (melanoma); U-87 MG (glioblastoma); NCI-H460 (NSCLC); A549 (NSCLC); HPAC (pancreatic cancer, primary); PC3 (prostate cancer, AR); BT474 (breast cancer, Her2 highly positive (Her2hi)); SKOV3 (ovarian cancer, Her2hi); 786-O (renal cancer); UO-31 (renal cancer, MDR); NCI-H740 (SCLC); DMS53 (SCLC); SK-BR3 (breast cancer, Her2hi); ZR-75 (breast cancer, estrogen receptor positive); OVCAR3 (ovarian cancer); HL-60 (APL); OVCAR8/Adr (ovarian cancer, MDR); CEM-Cl (ALL); Nomo-1 (AML); RPMI-8226 (MM)); Raji (lymphoma); SW-480 (colorectal cancer, metastatic); SW-620 (colorectal cancer); and H226 (lung cancer). (Not all compounds were assayed against all cell lines.)
(§3) Table 3 provides the data for the ATP luminescence proliferation assays, with an incubation period of 48, 72, or 96 h, as noted.

[2] = system: Raji; test: 3H thymidine proliferation assay, Raji; conditions: 3H thymidine method, 72 h incubation, read-out: EC50, Raji
Experimental: as §1, §2
(§4) Table 2 provides the data for proliferation assays using the ^3H thymidine method, with an incubation period of 72 h.

[3] = system: DMS53; test: ATP luminescence proliferation assay, DMS53; conditions: ATP luminescence, DMS53, 72 h incubation, read-out: EC50 DMS53 (72 h)
Experimental: as §1, §2, §3

[4] = system: ZR-75; test: 3H thymidine proliferation assay, ZR-75; conditions: 3H thymidine method, 72 h incubation, read-out: EC50, ZR-75
Experimental: as §1, §2, §4

[5] = system: Raji; test: ATP luminescence proliferation assay, Raji; conditions: ATP luminescence, 72 h incubation, read-out: EC50 Raji (72 h)
Experimental: as §1, §2, §3

[6] = system: H740; test: 3H thymidine proliferation assay, H740; conditions: 3H thymidine method, 72 h incubation, read-out: EC50, H740
Experimental: as §1, §2, §4

[7] = system: OVCAR3; test: 3H thymidine proliferation assay, OVCAR3; conditions: 3H thymidine method, 72 h incubation, read-out: EC50, OVCAR3
Experimental: as §1, §2, §4

[8] = system: A2058; test: ATP luminescence proliferation assay, A2058; conditions: ATP luminescence, A2058, 72 h incubation, read-out: EC50 A2058 (72 h)
Experimental: as §1, §2, §3

[9] = system: OVCAR3; test: ATP luminescence proliferation assay, OVCAR3; conditions: ATP luminescence, OVCAR3, 48 h incubation, read-out: EC50 OVCAR3 (48 h)
Outline: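 Seed 1.0×10^3 cells/well (3 h); add 1:3 dilution series of compound or conjugate; incubate 48, 72 or 96 h; measure ATP by luminescence; fit EC50 (50% inhibition of proliferation).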

[10] = system: SK-BR3; test: ATP luminescence proliferation assay, SK-BR3; conditions: ATP luminescence, SK-BR3, 72 h incubation, read-out: EC50 SK-BR3 (72 h)
Experimental: as §1, §2, §3

[11] = system: UO-31; test: 3H thymidine proliferation assay, UO-31; conditions: 3H thymidine method, 72 h incubation, read-out: EC50, UO-31
Experimental: as §1, §2, §4

[12] = system: PC3; test: ATP luminescence proliferation assay, PC3; conditions: ATP luminescence, PC3, 48 h incubation, read-out: EC50 PC3 (48 h)
Experimental: as §1, §2, §3

[13] = system: Nomo-1; test: 3H thymidine proliferation assay, Nomo-1; conditions: 3H thymidine method, 72 h incubation, read-out: EC50, Nomo-1
Experimental: as §1, §2, §4

[14] = system: UO-31; test: ATP luminescence proliferation assay, UO-31; conditions: ATP luminescence, UO-31, 48 h incubation, read-out: EC50 UO-31 (48 h)
Experimental: as §1, §2, §3

[15] = system: U-87 MG; test: ATP luminescence proliferation assay, U-87 MG; conditions: ATP luminescence, 72 h incubation, read-out: EC50 U-87 MG (72 h)
Experimental: as §1, §2, §3

[16] = system: RPMI-8226; test: 3H thymidine proliferation assay, RPMI-8226; conditions: 3H thymidine method, 72 h incubation, read-out: EC50, RPMI-8226
Experimental: as §1, §2, §4

[17] = system: DMS53; test: 3H thymidine proliferation assay, DMS53; conditions: 3H thymidine method, 72 h incubation, read-out: EC50, DMS53
Experimental: as §1, §2, §4

[18] = system: HCT-15; test: 3H thymidine proliferation assay, HCT-15; conditions: 3H thymidine method, 72 h incubation, read-out: EC50, HCT-15
Experimental: as §1, §2, §4

[19] = system: CEM-C1; test: 3H thymidine proliferation assay, CEM-C1; conditions: 3H thymidine method, 72 h incubation, read-out: EC50, CEM-C1
Experimental: as §1, §2, §4

EC50 ([1]; Homo sapiens): 443 nM
EC50 ([2]; Homo sapiens, Raji): 61 nM
EC50 ([5]; Homo sapiens): 301 nM
EC50 ([6]; Homo sapiens): 255 nM
EC50 ([7]; Homo sapiens, OVCAR-3): 258 nM
EC50 ([9]; Homo sapiens, OVCAR-3): 632 nM
EC50 ([10]; Homo sapiens, SK-BR-3): 441 nM
EC50 ([12]; Homo sapiens, PC-3): 1080 nM
EC50 ([15]; Homo sapiens): 324 nM
EC50 ([16]; Homo sapiens, RPMI-8226): 68 nM
EC50 ([18]; Homo sapiens, HCT-15): 149 nM
SMILES: COc1cccc2c1C(=O)c1c(O)c3c(c(O)c1C2=O)C[C@@](O)(C(=O)CO)C[C@@H]3O[C@H]1C[C@H](N)[C@H](O)[C@H](C)O1 [Dox, doxorubicin, reference compound]
EC50 ([3]; Homo sapiens, DMS-53): 755 nM
EC50 ([4]; Homo sapiens, ZR75): 794 nM
EC50 ([8]; Homo sapiens): 101 nM
EC50 ([11]; Homo sapiens, UO-31): 267 nM
EC50 ([13]; Homo sapiens, NOMO-1): 105 nM
EC50 ([14]; Homo sapiens): 908 nM
EC50 ([17]; Homo sapiens, DMS-53): 979 nM
EC50 ([19]; Homo sapiens, CEM/C1): 144 nM

SMILES: CC[C@H](C)[C@H](NC(=O)[C@H]1CCCCN1C)C(=O)N(COC(=O)CC(C)C)[C@H](C[C@@H](OC(C)=O)c1nc(C(=O)N[C@@H](Cc2ccccc2)C[C@H](C)C(=O)O)cs1)C(C)C [Tub D, tubulysin D, reference compound]
EC50 [1]: 0.0012 nM
EC50 [2]: 0.013 nM
EC50 [3]: 0.069 nM
EC50 [4]: 1.7 nM
EC50 [5]: 0.0048 nM
EC50 [6]: 2.2 nM
EC50 [7]: 0.051 nM
EC50 [8]: 0.0064 nM
EC50 [9]: 0.085 nM
EC50 [10]: 0.025 nM
EC50 [11]: 0.1 nM
EC50 [12]: 0.039 nM
EC50 [13]: 0.042 nM
EC50 [14]: 0.099 nM
EC50 [15]: 0.0054 nM
EC50 [16]: 0.037 nM
EC50 [17]: 0.21 nM
EC50 [18]: 0.062 nM
EC50 [19]: 0.018 nM
